Test results published in patent US20260109721A1, “IONIZABLE CATIONIC LIPIDS INCORPORATING SILICON: SYNTHESIS AND LNP FORMULATION” (priority 2023, published 2026).

System: HepG2 cell line
Assay: In vitro toxicity study on HepG2 cell line (resazurin, viability and IC50)
Format: cell-based, human
Conditions: resazurin; for Viability (%) at different lipid concentrations, mean: HepG2 cells, 48 h post-treatment, relative to ethanol vehicle controls; for IC50: Homo sapiens, lipid toxicity, HepG2, 48 h post-treatment, 6.25-800 μM, read-out: IC50 value, μM (on HepG2 cell)
Protocol: The synthesized lipids were tested in term of in vitro transfection efficacy and toxicity on HeLa cells. In order to perform the mentioned biological tests, appropriate LNPs had to be formulated from the synthesized lipids. The formulation technique was different in Method A and B. The particle size, polydispersity index (PDI) and zeta potential of resulting LNPs were determined by means of Dynamic Light Scattering technique (DLS). Prior to biological testing the encapsulation efficiency (EE) of the loaded LNPs was determined by using RiboGreen RNA assay. In case of Method A Luc mRNA while in case of Method B GFP mRNA was transfected into the cells. In parallel with the transfection experiments, toxicity of the investigated LNPs was determined, in case of Method A resazurin assay while in case of Method B MTT assay was used. Additionally, the toxicity of the lipids was investigated on HepG2 cells and IC50 values were determined.
HepG2 cell line (human hepatocellular carcinoma) were maintained in DMEM medium supplemented with 10% FBS. Cell toxicity measurements were carried out in 384-well microtiter plates with 1000 cells seeded in each well. Test measurements were carried out in triplicate, and control measurements in quadruplicate. After an overnight incubation, the cells were treated with an increasing concentration of the test compounds (6.25, 12.5, 25, 50, 100, 200, 400, 800 μM). […] 48 h post-treatment, following visual inspection under an inverted microscope, cell viability was measured by resazurin assay. Viability of treated cells was calculated relative to that of ethanol vehicle controls. Concentration response curves (CRCs) were obtained and corresponding IC50 values were calculated where applicable and are shown in Table 9.
Resazurin reagent (Sigma-Aldrich) was dissolved in PBS (pH 7.4) at 0.15 mg/ml concentration, 0.22 μm filtered and aliquoted at −20° C., 10 μl resazurin stock solution was added to wells. After 5 hours incubation at 37° C. under 5% CO2 fluorescence (530 nm excitation/580 nm emission) was recorded on a multimode microplate reader.

SMILES: CCCCC/C=C\C/C=C\CCCCCCCCOC(CCCCCCC/C=C\C/C=C\CCCCC)O[Si](C)(C)OCCCCCCN(CCCO)CCCO (stereo not shown) [Example 61, (24Z,27Z)-14-((8Z,11Z)-heptadeca-8,11-dien-1-yl)-4-(3-hydroxypropyl)-12,12-dimethyl-11,13,15-trioxa-4-aza-12-silatritriaconta-24,27-dien-1-ol]
- Viability (%) at different lipid concentrations, mean (6.25 μM lipid): 100.6%
- Viability (%) at different lipid concentrations, mean (12.5 μM lipid): 110.1%
- Viability (%) at different lipid concentrations, mean (25 μM lipid): 116.5%
- Viability (%) at different lipid concentrations, mean (50 μM lipid): 106.3%
- Viability (%) at different lipid concentrations, mean (100 μM lipid): 54.4%
- Viability (%) at different lipid concentrations, mean (200 μM lipid): 14.9%
- Viability (%) at different lipid concentrations, mean (400 μM lipid): −0.5%
- Viability (%) at different lipid concentrations, mean (800 μM lipid): −1.4%
- IC50: 102 µM

SMILES: CCCCC/C=C\C/C=C\CCCCCCCCOC(CCCCCCC/C=C\C/C=C\CCCCC)O[Si](C)(C)OCCCCCCN1CCCC1CO (stereo not shown) [Example 63, (1-((20Z,23Z)-10-((8Z,11Z)-heptadeca-8,11-dien-1-yl)-8,8-dimethyl-7,9,11-trioxa-8-silanonacosa-20,23-dien-1-yl)pyrrolidin-2-yl)methanol]
- Viability (%) at different lipid concentrations, mean (6.25 μM lipid): 99.3%
- Viability (%) at different lipid concentrations, mean (12.5 μM lipid): 96.4%
- Viability (%) at different lipid concentrations, mean (25 μM lipid): 96.6%
- Viability (%) at different lipid concentrations, mean (50 μM lipid): 98.3%
- Viability (%) at different lipid concentrations, mean (100 μM lipid): 94.8%
- Viability (%) at different lipid concentrations, mean (200 μM lipid): 91.6%
- Viability (%) at different lipid concentrations, mean (400 μM lipid): 85.3%
- Viability (%) at different lipid concentrations, mean (800 μM lipid): 74.5%
- IC50: > 800 µM

SMILES: CCCCC/C=C\C/C=C\CCCCCCCCOC(CCCCCCC/C=C\C/C=C\CCCCC)O[Si](C)(C)OCCCCCCN1CCC(CO)CC1 (stereo not shown) [Example 65, (1-((20Z,23Z)-10-((8Z,11Z)-heptadeca-8,11-dien-1-yl)-8,8-dimethyl-7,9,11-trioxa-8-silanonacosa-20,23-dien-1-yl)piperidin-4-yl)methanol]
- IC50: 742 µM

SMILES: CCCCCCCCO[Si](C)(C)O[Si](C)(C)OC(CCCCCCC)OCCCCCCN(C)CCN(C)CCN(C)CCCCCCOC(CCCCCCC)O[Si](C)(C)O[Si](C)(C)OCCCCCCCC (stereo not shown) [Example 83, N^1-(11-heptyl-3,13,13,15,15-pentamethyl-10,12,14,16-tetraoxa-3-aza-13,15-disilatetracosyl)-N^1,N^2-dimethyl-N^2-(6-((1-((1,1,3,3-tetramethyl-3-(octyloxy)disiloxaneyl)oxy)octyl)oxy)hexyl)ethane-1,2-diamine]
- Viability (%) at different lipid concentrations, mean (6.25 μM lipid): 100.51%
- Viability (%) at different lipid concentrations, mean (12.5 μM lipid): 98.95%
- Viability (%) at different lipid concentrations, mean (25 μM lipid): 100.30%
- Viability (%) at different lipid concentrations, mean (50 μM lipid): 101.93%
- Viability (%) at different lipid concentrations, mean (100 μM lipid): 83.41%
- Viability (%) at different lipid concentrations, mean (200 μM lipid): 41.91%
- Viability (%) at different lipid concentrations, mean (400 μM lipid): 2.25%
- Viability (%) at different lipid concentrations, mean (800 μM lipid): −1.25%
- IC50: 176 µM
